Key:
[1] = tested on: mice in the hyperthyroidism model group; assay: Measurement of the oxygen consumption of the mice; format: in vivo, Kunming mice; conditions: for Decrease in oxygen content: measured two days prior to the last medication, 21% minus residual oxygen; for oxygen consumption: in words, compared with the model group, catalpol low (30 mg/kg) and high (90 mg/kg) dosage groups, methimazole 7.5 mg/kg
Method: (§1) The successfully modeled mice are randomized into 5 groups (10 mice per group), that is, the hyperthyroidism model group, the catalpol low dosage group, the catalpol medium group, the catalpol high dosage group, and the methimazole group, plus the blank group (10 mice).
(§2) The catalpol low dosage group is administered 30mg/kg catalpol, the catalpol medium dosage group 60 mg/kg, the catalpol high group 90 mg/kg and the methimazole group 7.5 mg/kg methimazole, all by gastric infusion, while the blank group and the hyperthyroidism group are administered equal amount of distilled water, once per day, for 20 consecutive days. With the exception of the blank group, each mouse in each group continues to be administered 350 ug/kg levothyroxine sodium by means of subcutaneous injection each day.
Oxygen consumption is measured two days prior to the last medication. The specific method is: take a model CY-3 digital oxygen meter and install therein an oxygen electrode. Connect, perform zero adjustment, and repeat until the instrument is stable for use. Take a 500 ml bottle, fix its outward connecting pipe with a rubber cover, seal with Vaseline. The rubber cover is connected via a tee, and a shift in the tee is selectable for connection or disconnection with outer space. A mouse is placed inside the bottle, and the mouth of the bottle is instantly covered with a wood plug to shut off air from the inner flask. The filtering flask is horizontally placed on the experiment table, and timing of 20 minutes After 20 minute, 10 ml air from the bottle was taken out by a injector and rapidly injected into a connector of the CY-3 type digital oxygen analyzer with the oxygen analyzer indicating oxygen content of the pumped in air. The data, when stable, is recorded as the residual oxygen value, then the oxygen consumption (20 min, 10 ml)=21%—residual oxygen value (%). (21% oxygen in air).

[2] = tested on: mice in the hyperthyroidism model group; assay: Measurement of heart indexes of the mice; format: in vivo, Kunming mice; set-up: HWI / LVWI: unit not given here; conditions: for HWI: heart weight index = HW/BW; for HWI / LVWI: 20 days; for heart weight index / left ventricular index: in words, compared with the model group; for heart weight index: catalpol medium and high dosage and methimazole significant; for left ventricular index: catalpol medium and high dosage significant (P<0.01); for LVWI: left ventricular weight index = LVW/BW
Method: as §1, §2
A mouse is sacrificed its heart instantly taken out for measurement of its heart weight (HW) and (left ventricular weight (LVW). Heart weight index (HWI=HW/BW) and left ventricular weight index (LVWI=LVW/BW) is calculated at conclusion the experiment.

[3] = tested on: mice in the hyperthyroidism model group; assay: Measurement of heart rate of the mice (electrocardiogram); format: in vivo, Kunming mice
Method: The successfully modeled mice are randomized into 5 groups (10 mice per group), that is, the hyperthyroidism model group, the catalpol low dosage group, the catalpol medium group, the catalpol high dosage group, and the methimazole group, plus the blank group (10 mice). The catalpol low dosage group is administered 30mg/kg catalpol, the catalpol medium dosage group 60 mg/kg, the catalpol high group 90 mg/kg and the methimazole group 7.5 mg/kg methimazole, all by gastric infusion, while the blank group and the hyperthyroidism group are administered equal amount of distilled water, once per day, for 20 consecutive days. With the exception of the blank group, each mouse in each group continues to be administered 350 ug/kg levothyroxine sodium by means of subcutaneous injection each day. All the mice are suspended of food without suspension of water for 12 hours one day prior to the last medication and heart rate is measured 3 hours later. Heart rate (HR) is calculated via the electrocardiogram, statistics is then conducted, and differences are compared.

[4] = tested on: mice in the hyperthyroidism model group; assay: Measurement of the level of thyroid hormone of serum (radioimmunoassay); format: in vivo, Kunming mice; conditions: for T3 level in the serum / FT3 level in the serum / FT4 level in the serum / T4 level in the serum: in words, compared with the model group; for T3 level in the serum: catalpol 30, 60, 90 mg/kg groups, methimazole 7.5 mg/kg, P<0.05; for FT3 level in the serum: catalpol low P<0.01, medium, high and methimazole P<0.05; for FT4 level in the serum: only catalpol low dosage significant (P<0.05); for T4 level in the serum: only methimazole difference significant (P<0.05); for FT3 / FT4 / T3 / T4: serum, 20 days
Method: as §1, §2
A mouse is suspended of food without suspension of water for 12 hours subsequent to the last medication, and blood is taken from its eye ball, put in centrifugation for 15 minutes at 3500 r/min, serum is pumped out for measurement of T3, T4, FT3, and FT4 by means of radioimmunoassay. For detailed operations, see the instruction manual.

[5] = tested on: mice in the hyperthyroidism model group; assay: Observation of appearance and behavior of the mice; format: in vivo, Kunming mice; conditions: in words, as compared with the model group; daily observation
Method: The successfully modeled mice are randomized into 5 groups (10 mice per group), that is, the hyperthyroidism model group, the catalpol low dosage group, the catalpol medium group, the catalpol high dosage group, and the methimazole group, plus the blank group (10 mice). The catalpol low dosage group is administered 30mg/kg catalpol, the catalpol medium dosage group 60 mg/kg, the catalpol high group 90 mg/kg and the methimazole group 7.5 mg/kg methimazole, all by gastric infusion, while the blank group and the hyperthyroidism group are administered equal amount of distilled water, once per day, for 20 consecutive days. With the exception of the blank group, each mouse in each group continues to be administered 350 ug/kg levothyroxine sodium by means of subcutaneous injection each day. Animals were observed and recorded daily for their general status, including mental status, color and hair change, appearance and behavior. In addition, every two days, record is taken of their food intake.

[6] = tested on: mice in the hyperthyroidism model group; assay: Measurement of mice weight change; format: in vivo, Kunming mice; conditions: for BW2 − BW1: body weight difference; for BW2 − BW1 / BW2: 20 days; for body weight increase: in words, compared with the model group, catalpol groups, methimazole 7.5 mg/kg; for BW2: post-treatment body weight, levothyroxine sodium 350 ug/kg s.c. daily; for BW1: pre-treatment body weight
Method: as §1, §2
A mouse is suspended of food without suspension of water for 12 hours starting at 8 o'clock one day prior to the first medication, and all the mice are taken of their body weight (BW) the next day, that is, the pre-treatment body weight (BW1); the mouse is suspended of food without suspension of water for 12 hours starting at 8 o'clock of the day of the last medication, its body weight (BW) is taken the next day, that is, the post-treatment body weight (BW2); the difference of the pre-treatment body weight and the post-treatment body weight is calculated to compare the change of the body weight of the mice among each group.

Kunming mice = assay: Animal model preparation: injection of levothyroxine sodium (heart rate, serum T3/T4, heart weight index); format: in vivo; conditions: levothyroxine sodium 350 μg/kg subcutaneous injection, model group
Method: The animals are placed indoor for milieu adaptation 2 days prior to the experiment. 20 Kunming mice are randomly selected and put in the blank group, administered normal saline by subcutaneous injection, while the other mice are administered levothyroxine sodium 350 μg/kg by subcutaneous injection, with a daily dosage of 10 ml/kg, for 7 consecutive days.
After the third hour at the sixth day of medication, 10 mice (half male and half female) are randomly selected respectively from the blank group and the model group for measurement of heart rate. Under anesthesia, the mice are taken electrocardiogram for calculation of their heart rate. Statistical analysis is then conducted for comparison of differences.
In the case of substantial acceleration of its heart rate, a mouse is suspended of food without suspension of water for 12 hours starting at 8 o'clock of the last day (the seventh day) of medication. Each mouse in each group is taken of its weight at 8 o'clock the next morning. Blood is taken from its eye ball and subsequent to coagulation, put in centrifugation for 15 minutes at 3500 r/min, for measurement of T3 and T4 by means of radioimmunoas say. Each mouse is sacrificed and its heart is taken out for measurement of its heart weight and left ventricular weight. At conclusion of the experiment, the heart weight index and left ventricular weight index is calculated. [Heart weight index HWI=heart weight (HW)/body weight (BW); left ventricular weight index LVWI=left ventricular weight (LVW)/ body weight (BW)]
If the levels of the above indexes are substantially elevated, the model is regarded as successful.

[7] = catalpol 90 mg/kg gastric infusion once per day
[8] = catalpol 30 mg/kg gastric infusion once per day
[9] = catalpol 60 mg/kg gastric infusion once per day
[10] = in words, compared with the model group, catalpol 30, 60, 90 mg/kg groups, methimazole 7.5 mg/kg
[11] = methimazole 7.5 mg/kg gastric infusion once per day

SMILES: OC[C@H]1O[C@@H](O[C@@H]2OC=C[C@H]3[C@H](O)[C@@H]4O[C@]4(CO)[C@@H]23)[C@H](O)[C@@H](O)[C@@H]1O [Catalpol]
- Decrease in oxygen content ([1]; catalpol 30.0 mg/kg gastric infusion once per day): 8.88 %, 20 min
- Decrease in oxygen content ([1]; catalpol 60.0 mg/kg gastric infusion once per day): 9.03 %, 20 min
- Decrease in oxygen content [1, 7]: 8.81 %, 20 min
- oxygen consumption [1]: significantly decreased oxygen consumption
- HWI [2, 8]: 5.912
- HWI [2, 9]: 5.650
- HWI [2, 7]: 5.58
- heart weight index [2]: decreased heart weight index to some extent
- left ventricular index [2]: decreased left ventricular index to some extent
- LVWI [2, 8]: 1.786
- LVWI [2, 9]: 1.625
- LVWI [2, 7]: 1.582
- Heart rate ([3]; catalpol 30 mg/kg gastric infusion once per day, 20 days, levothyroxine sodium 350 ug/kg s.c. daily): 507.56 times/min
- Heart rate ([3]; catalpol 60 mg/kg gastric infusion once per day, 20 days, levothyroxine sodium 350 ug/kg s.c. daily): 538.75 times/min
- Heart rate ([3]; catalpol 90 mg/kg gastric infusion once per day, 20 days, levothyroxine sodium 350 ug/kg s.c. daily): 529.63 times/min
- Heart rate [3, 10]: decreased heart rate to some extent
- T3 level in the serum [4]: decreased T3 level in the serum to some extent
- FT3 level in the serum [4]: decreased FT3 level in the serum to some extent
- FT4 level in the serum [4]: decreased FT4 level in the serum to some extent
- T4 level in the serum [4]: decreased T4 level in the serum to some extent
- FT3 [4, 8]: 7.49 ng/mL
- FT4 [4, 8]: 22.87 ng/mL
- T3 [4, 8]: 3.84 ng/mL
- T4 [4, 8]: 181.02 ng/mL
- FT3 [4, 9]: 8.22 ng/mL
- FT4 [4, 9]: 23.77 ng/mL
- T3 [4, 9]: 3.52 ng/mL
- T4 [4, 9]: 179.90 ng/mL
- FT3 [4, 7]: 7.56 ng/mL
- FT4 [4, 7]: 24.02 ng/mL
- T3 [4, 7]: 3.50 ng/mL
- T4 [4, 7]: 178.50 ng/mL
- appearance and behavior of the mice [5]: quieter and have reduced symptoms of dysphoria, excitability, and drier and darker hair
- BW2 − BW1 [6, 8]: 9.00 g
- BW2 − BW1 [6, 9]: 10.10 g
- BW2 − BW1 [6, 7]: 10.15 g
- body weight increase [6]: more body weight increase to some extent
- BW2 [6, 8]: 36.40 g
- BW2 [6, 9]: 37.80 g
- BW2 [6, 7]: 37.75 g
- BW1 ([6]; catalpol 30 mg/kg group): 27.40 g
- BW1 ([6]; catalpol 60 mg/kg group): 27.70 g
- BW1 ([6]; catalpol 90 mg/kg group): 27.60 g

SMILES: N[C@@H](Cc1cc(I)c(Oc2cc(I)c(O)c(I)c2)c(I)c1)C(=O)O [levothyroxine sodium]
- HWI (Kunming mice; heart weight index = HW/BW, 7 day): 5.642 mg/g
- LVWI (Kunming mice; left ventricular weight index = LVW/BW, 7 day): 3.735 mg/g
- HR (Kunming mice; 6 day, mean ± S): 674.42 times/min
- T3 (Kunming mice; serum, 7 day, mean ± S): 2.89 ng/mL
- T4 (Kunming mice; serum, 7 day, mean ± S): 311.43 ng/mL

SMILES: Cn1cc[nH]c1=S [methimazole, reference compound]
- oxygen consumption [1]: significantly decreased oxygen consumption
- Decrease in oxygen content [1, 11]: 8.53 %, 20 min
- HWI [2, 11]: 5.784
- heart weight index [2]: decreased heart weight index to some extent
- left ventricular index [2]: decreased left ventricular index to some extent
- LVWI [2, 11]: 1.560
- Heart rate [3, 10]: decreased heart rate to some extent
- Heart rate ([3]; methimazole 7.5 mg/kg gastric infusion once per day, 20 days, levothyroxine sodium 350 ug/kg s.c. daily): 474.02 times/min
- T3 level in the serum [4]: decreased T3 level in the serum to some extent
- FT3 level in the serum [4]: decreased FT3 level in the serum to some extent
- FT4 level in the serum [4]: decreased FT4 level in the serum to some extent
- T4 level in the serum [4]: decreased T4 level in the serum to some extent
- FT3 [4, 11]: 8.80 ng/mL
- FT4 [4, 11]: 26.85 ng/mL
- T3 [4, 11]: 3.64 ng/mL
- T4 [4, 11]: 145.61 ng/mL
- BW2 − BW1 [6, 11]: 9.00 g
- body weight increase [6]: more body weight increase to some extent
- BW2 [6, 11]: 36.30 g
- BW1 ([6]; methimazole 7.5 mg/kg group): 27.30 g

Reference: patent publication US20150313928A1, “NEW APPLICATION OF CATALPOL” (SUZHOU YOUSEEN NEW PHARMACY DEVELOPMENT CO., LTD., priority 2012, published 2015)
